The target in experiment [1] is T1, GluN1/GluN2A (Rattus norvegicus, UniProt P35439+Q00959).
T1 construct: expressed in transfected cells; host or cells: Xenopus laevis oocytes (nuclear cDNA injection)
The experiment can be described thus: TEVC on Xenopus oocytes, GluN1/GluN2A diheteromers. Type of experiment: cell-based. Particulars: 1 µM trans-OptoNAM-3 (dark); listed as trans-OptoNAM-3. From the text: (§1) NMDARs exist as multiple subtypes in the brain that are formed by the combination of two GluN1 and either two identical (diheteromers) or different (triheteromers) GluN2 (GluN2A-D) subunits.[1] We assessed the selectivity of trans-OptoNAM-3 (dark PSS) for the other NMDAR subtypes.
(§2) We used cDNA coding for rat GluN1–1a (named GluN1 herein) (GenBank: U08261.1), rat GluN2A (GenBank: D13211.1), mouse GluN2B (GenBank: D10651.2), rat GluA1 flop (GenBank: M36418.2), and rat Myc-GluA2(Q)-flip (GenBank: AF164344.1) cloned into pcDNA3-based expression plasmids. GluK2 (GenBank: Z11548.1) corresponds to the fully RNA-edited version.[80] The GluN2B-ΔNTD construct is from ref[45] and GluN2B–N615K is from ref[81]. Single mutants GluN2B-Q110G and GluN1-L135H were from ref[19]. The GluA2 cDNA contains a Myc tag ([…]) fused between the signal peptide and the N-terminus sequences, and the GluA2 subunit is […] for its Q/R/N site (GluA2(Q)) to allow permeation of homomeric GluA2 receptors.[2] cDNAs coding for rat GluN2C (GenBank: M91563.1) and GluN2D subunits (GenBank: L31611.1) were in prK5 plasmids.
(§3) Expression of recombinant NMDA receptors was obtained by oocyte nuclear coinjection of 37 nL of a mixture of cDNAs (at 30 ng/μL) coding for GluN1–1a and various GluN2 subunits (ratio 1:1). The protocol in ref[43] was followed for the expression of GluN1/GluN2A/GluN2B triheteromers. […]

The target of experiment [2] is T2, GluN1/GluN2C (Rattus norvegicus, UniProt P35439+Q00961).
T2 construct: expressed in transfected cells; host or cells: Xenopus laevis oocytes (nuclear cDNA injection)
T2 sequence (Q00961 20-1237, other chains not shown): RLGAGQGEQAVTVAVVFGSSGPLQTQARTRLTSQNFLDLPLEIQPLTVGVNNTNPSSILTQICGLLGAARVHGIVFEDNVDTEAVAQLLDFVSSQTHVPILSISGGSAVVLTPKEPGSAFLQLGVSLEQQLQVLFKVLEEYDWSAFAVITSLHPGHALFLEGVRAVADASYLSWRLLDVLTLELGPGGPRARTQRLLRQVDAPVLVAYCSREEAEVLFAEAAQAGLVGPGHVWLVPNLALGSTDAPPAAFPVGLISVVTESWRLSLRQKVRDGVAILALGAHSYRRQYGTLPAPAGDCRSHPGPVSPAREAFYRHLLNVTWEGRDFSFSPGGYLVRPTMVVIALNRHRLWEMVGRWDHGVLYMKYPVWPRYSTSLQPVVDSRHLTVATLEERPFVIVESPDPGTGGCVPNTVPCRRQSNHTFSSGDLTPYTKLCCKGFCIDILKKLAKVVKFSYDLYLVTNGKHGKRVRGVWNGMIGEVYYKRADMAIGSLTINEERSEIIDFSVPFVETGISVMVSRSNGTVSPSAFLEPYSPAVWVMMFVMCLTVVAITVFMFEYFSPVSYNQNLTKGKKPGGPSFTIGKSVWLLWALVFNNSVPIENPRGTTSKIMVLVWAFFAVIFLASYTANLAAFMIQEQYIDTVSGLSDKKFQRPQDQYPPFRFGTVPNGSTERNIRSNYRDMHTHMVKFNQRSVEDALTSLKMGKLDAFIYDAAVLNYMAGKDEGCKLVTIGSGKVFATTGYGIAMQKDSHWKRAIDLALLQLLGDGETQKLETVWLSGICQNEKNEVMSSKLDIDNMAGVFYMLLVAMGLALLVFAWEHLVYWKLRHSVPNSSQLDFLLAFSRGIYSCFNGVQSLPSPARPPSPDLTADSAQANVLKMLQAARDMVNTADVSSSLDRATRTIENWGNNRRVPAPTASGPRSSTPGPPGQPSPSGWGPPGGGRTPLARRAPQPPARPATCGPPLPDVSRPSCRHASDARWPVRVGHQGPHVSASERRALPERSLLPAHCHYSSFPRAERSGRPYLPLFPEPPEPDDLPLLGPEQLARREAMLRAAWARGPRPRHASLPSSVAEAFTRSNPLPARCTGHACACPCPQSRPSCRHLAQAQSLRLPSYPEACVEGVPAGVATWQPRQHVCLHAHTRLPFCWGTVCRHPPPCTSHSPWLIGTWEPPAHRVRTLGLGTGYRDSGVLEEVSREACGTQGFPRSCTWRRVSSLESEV
The experiment can be described thus: TEVC on Xenopus oocytes, GluN1/GluN2C diheteromers. Type of experiment: cell-based. To be noted: 1 µM trans-OptoNAM-3 (dark); listed as trans-OptoNAM-3.
Excerpt: as §1, §2, §3

Each structure is given as a SMILES string.

T1 sequence (Q00959 23-1464, other chains not shown): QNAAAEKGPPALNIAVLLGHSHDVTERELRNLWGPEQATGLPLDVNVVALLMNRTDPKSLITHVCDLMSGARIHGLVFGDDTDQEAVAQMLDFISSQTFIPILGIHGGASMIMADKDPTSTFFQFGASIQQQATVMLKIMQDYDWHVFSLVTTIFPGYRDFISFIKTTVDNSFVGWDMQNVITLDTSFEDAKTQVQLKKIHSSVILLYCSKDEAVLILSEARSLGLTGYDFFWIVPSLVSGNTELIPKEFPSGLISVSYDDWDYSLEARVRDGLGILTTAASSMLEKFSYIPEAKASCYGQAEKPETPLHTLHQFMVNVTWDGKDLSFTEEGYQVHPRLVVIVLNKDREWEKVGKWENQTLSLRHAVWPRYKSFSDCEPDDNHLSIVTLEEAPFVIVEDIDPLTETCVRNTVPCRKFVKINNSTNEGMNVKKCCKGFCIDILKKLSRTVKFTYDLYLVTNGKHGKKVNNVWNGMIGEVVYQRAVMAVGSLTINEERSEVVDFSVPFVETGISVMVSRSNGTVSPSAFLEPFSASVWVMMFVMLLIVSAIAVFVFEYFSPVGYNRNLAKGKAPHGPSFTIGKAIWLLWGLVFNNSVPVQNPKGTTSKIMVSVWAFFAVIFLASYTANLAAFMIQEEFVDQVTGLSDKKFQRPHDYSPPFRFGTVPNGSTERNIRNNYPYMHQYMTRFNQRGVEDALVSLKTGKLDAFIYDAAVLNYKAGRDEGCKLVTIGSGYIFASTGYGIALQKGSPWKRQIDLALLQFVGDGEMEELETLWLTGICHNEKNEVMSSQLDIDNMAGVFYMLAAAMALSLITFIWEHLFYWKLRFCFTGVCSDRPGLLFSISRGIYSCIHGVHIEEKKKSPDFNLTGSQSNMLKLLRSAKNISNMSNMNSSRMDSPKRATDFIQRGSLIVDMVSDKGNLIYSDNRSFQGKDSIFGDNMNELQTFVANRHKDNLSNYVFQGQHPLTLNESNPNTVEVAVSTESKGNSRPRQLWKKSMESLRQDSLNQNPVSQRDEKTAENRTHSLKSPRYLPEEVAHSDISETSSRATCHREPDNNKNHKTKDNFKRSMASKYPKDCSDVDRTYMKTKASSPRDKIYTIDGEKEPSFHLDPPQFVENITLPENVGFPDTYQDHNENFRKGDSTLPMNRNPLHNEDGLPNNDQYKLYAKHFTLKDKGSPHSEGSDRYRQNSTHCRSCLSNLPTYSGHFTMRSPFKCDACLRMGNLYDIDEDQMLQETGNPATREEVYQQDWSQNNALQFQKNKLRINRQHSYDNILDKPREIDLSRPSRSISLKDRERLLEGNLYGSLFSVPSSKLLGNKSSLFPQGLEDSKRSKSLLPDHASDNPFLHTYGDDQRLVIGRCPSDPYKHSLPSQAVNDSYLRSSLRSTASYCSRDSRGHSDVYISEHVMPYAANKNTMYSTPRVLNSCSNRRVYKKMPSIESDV

For the compound `c1ccc(/N=N/c2ccc(CCNc3ccncc3)cc2)cc1` [OptoNAM-3, (E)-N-(4-(Phenyldiazenyl)phenethyl)pyridin-4-amine], in experiment [1], the “inhibition of GluN1/GluN2A” value is given as 2.7% ± 0.5%. Moreover, in experiment [2], the “inhibition of GluN1/GluN2C” value is given as 3.2% ± 0.5%.

(Values after paper PMC11413854, “Reversible Control of Native GluN2B-Containing NMDA Receptors with Visible Light” (ACS Chemical Neuroscience, 2024).)
